Measured values from patent US7792665B2, “Method for designing a compound based on the three dimensional structure of phosphoinositide dependent protein kinase 1 (PDK1)” (Medical Research Council, priority 2002, dated 2010).
“And” between values parts separate entries of the source, which are not always exact repeats. Identical values can stand only once. Where no end group is shown, it is not given here.

How the values were obtained:
[1] = biological target: S6K-pHM, phosphopeptide comprising the hydrophobic motif of S6K1; assay: SPR (BiaCore), against PIFtide
[2] = biological target: S6K-pHM, phosphopeptide comprising the hydrophobic motif of S6K1; assay: SPR (BiaCore 3000), biotinylated S6K-pHM on SA chip, GST-PDK1 injected at 2-2150 nM, steady state, apparent Kd
[3] = biological target: S6K-pHM, phosphopeptide comprising the hydrophobic motif of S6K1; assay: SPR (BiaCore), rounded value
[4] = biological target: S6K-pHM, phosphopeptide comprising the hydrophobic motif of S6K1; assay: SPR (BiaCore), dissociation phase
PDK1 [5] = biological target: T1, PDK1 (Homo sapiens, UniProt O15530); assay: PDK1 protein kinase assay with PDK1tide substrate and [γ-32P]ATP; format: biochemical; settings: 1 μM inhibitor, 0.1 mM ATP, average of triplicate
T1 sequence (O15530 1-556): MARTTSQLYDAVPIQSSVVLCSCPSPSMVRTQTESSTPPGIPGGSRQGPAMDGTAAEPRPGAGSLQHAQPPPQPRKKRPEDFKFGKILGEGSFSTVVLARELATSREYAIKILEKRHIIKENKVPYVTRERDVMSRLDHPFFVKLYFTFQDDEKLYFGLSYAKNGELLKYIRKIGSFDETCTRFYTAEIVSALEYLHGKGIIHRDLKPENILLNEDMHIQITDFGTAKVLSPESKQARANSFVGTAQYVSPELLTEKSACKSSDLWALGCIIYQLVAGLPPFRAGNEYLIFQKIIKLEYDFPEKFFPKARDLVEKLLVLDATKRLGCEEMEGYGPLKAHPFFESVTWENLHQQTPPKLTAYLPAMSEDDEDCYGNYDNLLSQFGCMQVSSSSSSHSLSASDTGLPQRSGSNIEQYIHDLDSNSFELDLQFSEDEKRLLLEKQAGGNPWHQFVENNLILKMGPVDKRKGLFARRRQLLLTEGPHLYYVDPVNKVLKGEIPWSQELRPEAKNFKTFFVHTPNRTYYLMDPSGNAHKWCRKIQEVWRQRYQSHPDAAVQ
Procedure: (§1) Other protein kinases employed in Table 5, were assayed as described previously.
A structure-based sequence alignment of known kinase structures was obtained from, which was used to validate the sequence-based sequence alignment (Table 5).

CK1 = assay: Kinase panel assay, CK1; format: biochemical; settings: 1 μM inhibitor, 0.1 mM ATP, average of triplicate
ROCK-II = ROCK-II (Homo sapiens, UniProt O75116); assay: Kinase panel assay, ROCK-II; format: biochemical; settings: 1 μM inhibitor, 0.1 mM ATP, average of triplicate
SGK1 = SGK1 (Homo sapiens, UniProt O00141); assay: Kinase panel assay, SGK1; format: biochemical; settings: 1 μM inhibitor, 0.1 mM ATP, average of triplicate
SAPK4/p38δ = SAPK4/p38δ (Homo sapiens, UniProt O15264); assay: Kinase panel assay, SAPK4/p38δ; format: biochemical; settings: 1 μM inhibitor, 0.1 mM ATP, average of triplicate
DYRK1α = DYRK1α (Homo sapiens, UniProt Q13627); assay: Kinase panel assay, DYRK1α; format: biochemical; settings: 1 μM inhibitor, 0.1 mM ATP, average of triplicate
JNKSAPK1c = JNKSAPK1c (Homo sapiens, UniProt P45983); assay: Kinase panel assay, JNKSAPK1c; format: biochemical; settings: 1 μM inhibitor, 0.1 mM ATP, average of triplicate
PRAK = PRAK (Homo sapiens, UniProt Q8IW41); assay: Kinase panel assay, PRAK; format: biochemical; settings: 1 μM inhibitor, 0.1 mM ATP, average of triplicate
MAPKAP-K2 = MAPKAP-K2 (Homo sapiens, UniProt P49137); assay: Kinase panel assay, MAPKAP-K2; format: biochemical; settings: 1 μM inhibitor, 0.1 mM ATP, average of triplicate
PKBΔPH = PKBΔPH (Homo sapiens, UniProt P31749); assay: biochemical; settings: read-out: percentage of kinase activity compared to control incubations, PKBΔPH
Procedure: as §1

GSK3β = GSK3β (Homo sapiens, UniProt P49841); assay: Kinase panel assay, GSK3β; format: biochemical; settings: 1 μM inhibitor, 0.1 mM ATP, average of triplicate
CSK = CSK (Homo sapiens, UniProt P41240); assay: Kinase panel assay, CSK; format: biochemical; settings: 1 μM inhibitor, 0.1 mM ATP, average of triplicate
MSK1 = MSK1 (Homo sapiens, UniProt O75582); assay: Kinase panel assay, MSK1; format: biochemical; settings: 1 μM inhibitor, 0.1 mM ATP, average of triplicate
S6K1 = S6K1 (Homo sapiens, UniProt P23443); assay: Kinase panel assay, S6K1; format: biochemical; settings: 1 μM inhibitor, 0.1 mM ATP, average of triplicate
PHOS.KINASE = PHOS.KINASE (Oryctolagus cuniculus, UniProt P00518); assay: Kinase panel assay, phosphorylase kinase; format: biochemical; settings: 1 μM inhibitor, 0.1 mM ATP, average of triplicate
CHK1 [6] = biological target: T2, CHK1 (Homo sapiens, UniProt O14757); assay: Kinase panel assay, CHK1; format: biochemical; settings: 1 μM inhibitor, 0.1 mM ATP, average of triplicate
T2 sequence (O14757 1-476): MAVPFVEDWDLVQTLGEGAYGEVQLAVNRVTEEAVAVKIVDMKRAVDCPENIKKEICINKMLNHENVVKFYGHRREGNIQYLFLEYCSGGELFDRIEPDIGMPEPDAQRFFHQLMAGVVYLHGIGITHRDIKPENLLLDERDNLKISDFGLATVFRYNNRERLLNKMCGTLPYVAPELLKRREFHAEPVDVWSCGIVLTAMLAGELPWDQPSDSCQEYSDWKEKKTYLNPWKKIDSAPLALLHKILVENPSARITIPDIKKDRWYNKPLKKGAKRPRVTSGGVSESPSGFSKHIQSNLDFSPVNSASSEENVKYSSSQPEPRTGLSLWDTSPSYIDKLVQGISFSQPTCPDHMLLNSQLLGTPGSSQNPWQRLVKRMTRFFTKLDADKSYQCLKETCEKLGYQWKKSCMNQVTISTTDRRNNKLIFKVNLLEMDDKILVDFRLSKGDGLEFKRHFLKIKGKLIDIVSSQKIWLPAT

PDK1 [7] = biological target: T1, PDK1; settings: literature [21]; cited from earlier work
MKK1 = MKK1 (Homo sapiens, UniProt Q02750); assay: Kinase panel assay, MKK1; format: biochemical; settings: 1 μM inhibitor, 0.1 mM ATP, average of triplicate
SAPK2α/p38 = SAPK2α/p38 (Homo sapiens, UniProt Q16539); assay: Kinase panel assay, SAPK2α/p38; format: biochemical; settings: 1 μM inhibitor, 0.1 mM ATP, average of triplicate
AMPK = assay: Kinase panel assay, AMPK; format: biochemical; settings: 1 μM inhibitor, 0.1 mM ATP, average of triplicate
Procedure: as §1

CHK1 [8] = biological target: T2, CHK1; settings: literature [20]; cited from earlier work
CK2 = CK2 (Homo sapiens, UniProt P68400); assay: Kinase panel assay, CK2; format: biochemical; settings: 1 μM inhibitor, 0.1 mM ATP, average of triplicate
PKCα = PKCα (Homo sapiens, UniProt P17252); assay: Kinase panel assay, PKCα; format: biochemical; settings: 1 μM inhibitor, 0.1 mM ATP, average of triplicate
PKA = PKA (Homo sapiens, UniProt P17612); assay: Kinase panel assay, PKA; format: biochemical; settings: 1 μM inhibitor, 0.1 mM ATP, average of triplicate
SAPK2β/p38β2 = SAPK2β/p38β2 (Homo sapiens, UniProt Q15759); assay: Kinase panel assay, SAPK2β/p38β2; format: biochemical; settings: 1 μM inhibitor, 0.1 mM ATP, average of triplicate
MAPKAP-K1a = MAPKAP-K1a (Homo sapiens, UniProt Q15418); assay: Kinase panel assay, MAPKAP-K1a; format: biochemical; settings: 1 μM inhibitor, 0.1 mM ATP, average of triplicate
NEK6 = NEK6 (Homo sapiens, UniProt Q9HC98); assay: Kinase panel assay, NEK6; format: biochemical; settings: 1 μM inhibitor, 0.1 mM ATP, average of triplicate
Lck = Lck (Homo sapiens, UniProt P06239); assay: Kinase panel assay, Lck; format: biochemical; settings: 1 μM inhibitor, 0.1 mM ATP, average of triplicate
[9] = biological target: S6K-pHM, phosphopeptide comprising the hydrophobic motif of S6K1; assay: SPR (BiaCore), against wild type PDK1
[10] = biological target: S6K-pHM, phosphopeptide comprising the hydrophobic motif of S6K1; assay: SPR (BiaCore), maximal response obtained empirically
[11] = biological target: T3, wild type PDK1 fused through its N-terminus to glutathione S-transferase (GST-PDK1) (human, UniProt O15530 1-556); assay: SPR (BiaCore), biotinylated peptide on SA chip
T3 construct: Expressed in human embryonic kidney 293 cells from pEBG2T; also called wt PDK1; 3-Phosphoinositide Dependent Protein Kinase-1; not shown: glutathione S-transferase (GST) tag from the pEBG2T vector, fused to the N-terminus of PDK1
T3 sequence: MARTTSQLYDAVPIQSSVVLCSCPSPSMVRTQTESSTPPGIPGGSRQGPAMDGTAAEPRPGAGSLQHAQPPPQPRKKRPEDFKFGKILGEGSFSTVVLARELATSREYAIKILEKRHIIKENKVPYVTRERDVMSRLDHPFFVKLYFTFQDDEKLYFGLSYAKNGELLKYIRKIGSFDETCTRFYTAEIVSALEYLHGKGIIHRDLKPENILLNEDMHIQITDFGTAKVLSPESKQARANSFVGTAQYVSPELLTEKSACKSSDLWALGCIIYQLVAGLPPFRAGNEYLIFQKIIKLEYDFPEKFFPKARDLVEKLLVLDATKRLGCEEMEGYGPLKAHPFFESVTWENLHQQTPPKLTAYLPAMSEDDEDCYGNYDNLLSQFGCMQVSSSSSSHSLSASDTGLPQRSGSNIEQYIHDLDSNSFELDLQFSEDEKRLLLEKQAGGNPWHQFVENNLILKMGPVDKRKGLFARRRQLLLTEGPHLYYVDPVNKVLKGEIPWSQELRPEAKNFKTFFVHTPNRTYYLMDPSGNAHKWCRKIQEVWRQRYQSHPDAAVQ
Procedure: Binding was analysed in a BiaCore 3000 system (BiaCore AB, Stevenage, UK). […] 30 μl of wild type or the indicated mutant GST-PDK1 were injected at a flow rate of 30 μl/min, in buffer HBS-P (10 mM HEPES pH 7.4, 0.15M NaCl, 0.005% (by vol) polysorbate-20) supplemented with 1 mM DTT. […] Steady state binding was determined at each concentration. Dissociation of PDK1 from the phospho-peptide was monitored over a 1 min period. Regeneration of the sensor chip surface was performed with 10 μl injections of 0.05% SDS.

[12] = biological target: T3, wild type PDK1 fused through its …; assay: cell-based or functional assay

SGK1, sequence (O00141 whole entry): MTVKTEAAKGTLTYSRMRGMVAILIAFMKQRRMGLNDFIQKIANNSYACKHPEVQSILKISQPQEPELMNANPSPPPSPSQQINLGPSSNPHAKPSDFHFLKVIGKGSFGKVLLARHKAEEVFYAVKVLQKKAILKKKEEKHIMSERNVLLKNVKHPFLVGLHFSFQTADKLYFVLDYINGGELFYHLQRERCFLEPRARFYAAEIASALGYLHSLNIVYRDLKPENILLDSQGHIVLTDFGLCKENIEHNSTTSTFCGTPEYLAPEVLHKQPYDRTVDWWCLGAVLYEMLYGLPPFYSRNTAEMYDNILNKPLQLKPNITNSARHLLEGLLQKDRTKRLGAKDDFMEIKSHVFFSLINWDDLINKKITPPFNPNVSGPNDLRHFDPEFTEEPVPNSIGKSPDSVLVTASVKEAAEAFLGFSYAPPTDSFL
MSK1, sequence (O75582 whole entry): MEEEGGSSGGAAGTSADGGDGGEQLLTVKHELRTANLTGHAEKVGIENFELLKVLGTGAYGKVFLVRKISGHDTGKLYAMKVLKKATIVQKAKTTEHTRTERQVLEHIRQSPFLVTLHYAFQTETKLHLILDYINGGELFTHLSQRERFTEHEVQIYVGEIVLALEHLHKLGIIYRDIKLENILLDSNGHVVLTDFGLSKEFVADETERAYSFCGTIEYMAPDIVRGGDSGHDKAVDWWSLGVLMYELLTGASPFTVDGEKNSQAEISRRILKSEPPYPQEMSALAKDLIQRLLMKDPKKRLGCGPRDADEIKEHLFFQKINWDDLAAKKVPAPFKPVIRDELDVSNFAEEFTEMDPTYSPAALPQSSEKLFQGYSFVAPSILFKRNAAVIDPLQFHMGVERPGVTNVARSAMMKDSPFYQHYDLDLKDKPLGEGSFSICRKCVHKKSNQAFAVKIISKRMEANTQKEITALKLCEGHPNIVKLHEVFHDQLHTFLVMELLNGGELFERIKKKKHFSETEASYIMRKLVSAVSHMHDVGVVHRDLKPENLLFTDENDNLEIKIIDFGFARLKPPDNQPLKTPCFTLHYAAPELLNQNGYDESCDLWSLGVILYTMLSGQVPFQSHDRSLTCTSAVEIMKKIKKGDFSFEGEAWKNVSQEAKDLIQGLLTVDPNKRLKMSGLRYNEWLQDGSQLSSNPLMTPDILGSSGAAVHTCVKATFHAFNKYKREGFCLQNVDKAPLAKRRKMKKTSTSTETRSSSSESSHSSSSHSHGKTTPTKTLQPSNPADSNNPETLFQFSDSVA
CSK, sequence (P41240 whole entry, species assumed): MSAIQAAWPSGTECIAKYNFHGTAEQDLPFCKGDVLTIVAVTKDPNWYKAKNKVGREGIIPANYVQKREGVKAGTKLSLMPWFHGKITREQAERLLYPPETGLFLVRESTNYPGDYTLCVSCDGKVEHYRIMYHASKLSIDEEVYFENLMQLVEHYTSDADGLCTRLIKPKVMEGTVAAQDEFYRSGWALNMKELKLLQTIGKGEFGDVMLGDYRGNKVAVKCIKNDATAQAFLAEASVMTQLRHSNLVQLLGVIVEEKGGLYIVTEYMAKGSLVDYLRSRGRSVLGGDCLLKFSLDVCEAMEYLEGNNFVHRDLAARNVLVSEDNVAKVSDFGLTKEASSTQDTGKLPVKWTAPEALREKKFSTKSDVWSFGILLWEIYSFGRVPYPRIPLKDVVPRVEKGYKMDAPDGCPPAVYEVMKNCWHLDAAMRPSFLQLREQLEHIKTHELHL
Lck, sequence (P06239 whole entry, species assumed): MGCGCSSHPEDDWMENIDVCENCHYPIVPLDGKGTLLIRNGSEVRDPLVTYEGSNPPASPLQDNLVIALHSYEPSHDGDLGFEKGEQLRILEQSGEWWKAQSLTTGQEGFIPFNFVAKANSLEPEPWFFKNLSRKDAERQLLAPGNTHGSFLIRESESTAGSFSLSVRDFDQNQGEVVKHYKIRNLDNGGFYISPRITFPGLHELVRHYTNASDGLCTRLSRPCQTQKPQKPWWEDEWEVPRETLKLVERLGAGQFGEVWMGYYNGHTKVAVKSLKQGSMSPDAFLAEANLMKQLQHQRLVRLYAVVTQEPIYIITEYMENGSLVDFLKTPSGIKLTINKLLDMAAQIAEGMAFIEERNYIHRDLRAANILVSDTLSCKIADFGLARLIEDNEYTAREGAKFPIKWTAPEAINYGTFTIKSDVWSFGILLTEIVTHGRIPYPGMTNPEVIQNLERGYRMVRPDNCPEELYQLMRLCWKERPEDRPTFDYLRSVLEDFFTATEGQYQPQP
GSK3β, sequence (P49841 whole entry, species assumed): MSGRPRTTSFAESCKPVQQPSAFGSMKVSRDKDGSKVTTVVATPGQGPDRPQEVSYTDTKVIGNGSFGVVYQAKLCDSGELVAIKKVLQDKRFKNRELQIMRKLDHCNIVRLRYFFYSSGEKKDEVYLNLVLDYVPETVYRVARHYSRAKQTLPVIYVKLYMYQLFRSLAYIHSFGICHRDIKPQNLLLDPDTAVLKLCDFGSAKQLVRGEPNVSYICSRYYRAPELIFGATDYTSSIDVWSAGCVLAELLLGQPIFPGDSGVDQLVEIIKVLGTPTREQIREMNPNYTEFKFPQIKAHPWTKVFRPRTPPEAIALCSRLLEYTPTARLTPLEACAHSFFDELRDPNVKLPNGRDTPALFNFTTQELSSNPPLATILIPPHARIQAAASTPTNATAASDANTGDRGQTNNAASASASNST
PKBΔPH, sequence (P31749 118-480 limits assumed, stated change not applied): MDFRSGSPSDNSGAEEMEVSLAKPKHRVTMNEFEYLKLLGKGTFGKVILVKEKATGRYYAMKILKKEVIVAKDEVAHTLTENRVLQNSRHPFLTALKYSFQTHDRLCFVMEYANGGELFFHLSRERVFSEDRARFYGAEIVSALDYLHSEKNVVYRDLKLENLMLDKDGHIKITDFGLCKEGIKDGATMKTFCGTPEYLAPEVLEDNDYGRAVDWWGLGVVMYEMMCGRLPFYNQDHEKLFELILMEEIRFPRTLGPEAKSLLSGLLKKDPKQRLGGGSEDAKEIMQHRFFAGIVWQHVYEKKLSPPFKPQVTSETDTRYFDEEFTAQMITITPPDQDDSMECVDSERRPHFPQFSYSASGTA
MAPKAP-K2, sequence (P49137 whole entry, species assumed): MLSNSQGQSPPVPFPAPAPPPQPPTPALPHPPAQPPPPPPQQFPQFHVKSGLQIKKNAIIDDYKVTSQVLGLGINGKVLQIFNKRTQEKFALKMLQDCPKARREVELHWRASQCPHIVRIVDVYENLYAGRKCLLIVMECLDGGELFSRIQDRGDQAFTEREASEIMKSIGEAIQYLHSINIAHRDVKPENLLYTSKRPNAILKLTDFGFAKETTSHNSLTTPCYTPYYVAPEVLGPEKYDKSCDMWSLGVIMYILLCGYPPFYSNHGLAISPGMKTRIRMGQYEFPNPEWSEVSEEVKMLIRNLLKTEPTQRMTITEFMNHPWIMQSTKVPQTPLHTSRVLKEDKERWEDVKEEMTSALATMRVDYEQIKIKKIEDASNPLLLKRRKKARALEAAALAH
CK2, sequence (P68400 whole entry): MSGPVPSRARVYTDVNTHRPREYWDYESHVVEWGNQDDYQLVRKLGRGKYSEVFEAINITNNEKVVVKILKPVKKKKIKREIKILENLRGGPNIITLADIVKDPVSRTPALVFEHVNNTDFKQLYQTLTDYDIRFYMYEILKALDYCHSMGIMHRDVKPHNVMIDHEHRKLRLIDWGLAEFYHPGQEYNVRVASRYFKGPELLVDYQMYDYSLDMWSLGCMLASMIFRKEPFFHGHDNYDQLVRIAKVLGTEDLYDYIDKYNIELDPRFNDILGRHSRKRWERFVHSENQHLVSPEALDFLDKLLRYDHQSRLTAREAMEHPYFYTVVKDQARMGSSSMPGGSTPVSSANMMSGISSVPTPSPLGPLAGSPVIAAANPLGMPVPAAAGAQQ
SAPK2β/p38β2, sequence (Q15759 whole entry): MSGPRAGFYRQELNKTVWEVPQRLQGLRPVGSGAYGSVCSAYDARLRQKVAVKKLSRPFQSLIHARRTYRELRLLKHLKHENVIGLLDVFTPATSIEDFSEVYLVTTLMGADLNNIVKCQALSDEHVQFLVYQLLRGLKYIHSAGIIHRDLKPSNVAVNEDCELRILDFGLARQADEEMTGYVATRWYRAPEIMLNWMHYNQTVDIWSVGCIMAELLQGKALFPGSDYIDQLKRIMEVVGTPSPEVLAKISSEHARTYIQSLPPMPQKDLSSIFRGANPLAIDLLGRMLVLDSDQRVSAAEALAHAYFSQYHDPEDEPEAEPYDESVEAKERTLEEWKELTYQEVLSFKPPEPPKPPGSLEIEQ

Molecule: wild type PDK1 fused through its N-terminus to glutathione S-transferase (GST-PDK1) (from UniProt O15530 1-556) (enzyme)
- fold lower affinity than for PIFtide [1]: 100 fold
- Kd [2]: 642 nM
- Kd [3]: 600 nM
- time taken for 50% dissociation [4]: 30 s

Molecule: CN[C@@H]1C[C@H]2O[C@@](C)([C@@H]1OC)n1c3ccccc3c3c4c(c5c6ccccc6n2c5c31)C(=O)N[C@H]4O [UCN-01, 7-hydroxyl staurosporine]
- percentage of kinase activity compared to control incubations, PDK1 (PDK1 [5]): 0 ± 1%
- percentage of kinase activity compared to control incubations, CK1 (CK1): 96 ± 0%
- percentage of kinase activity compared to control incubations, ROCK-II (ROCK-II): 13 ± 2%
- percentage of kinase activity compared to control incubations, SGK1 (SGK1): 25% and 22 ± 4%
- percentage of kinase activity compared to control incubations, SAPK4/p38δ (SAPK4/p38δ): 100 ± 7%
- percentage of kinase activity compared to control incubations, DYRK1α (DYRK1α): 15 ± 2%
- percentage of kinase activity compared to control incubations, JNKSAPK1c (JNKSAPK1c): 112 ± 6%
- percentage of kinase activity compared to control incubations, PRAK (PRAK): 89 ± 4%
- percentage of kinase activity compared to control incubations, MAPKAP-K2 (MAPKAP-K2): 60 ± 1%
- remaining activity at 1 µM (PKBΔPH): 9 ± 1%
- percentage of kinase activity compared to control incubations, GSK3β (GSK3β): 25 ± 5%
- percentage of kinase activity compared to control incubations, CSK (CSK): 58 ± 3%
- percentage of kinase activity compared to control incubations, MSK1 (MSK1): 11% and 11 ± 0%
- percentage of kinase activity compared to control incubations, S6K1 (S6K1): 21 ± 4%
- percentage of kinase activity compared to control incubations, PHOS.KINASE (PHOS.KINASE): 1 ± 2%
- percentage of kinase activity compared to control incubations, CHK1 (CHK1 [6]): 1 ± 0%
- inhibition of PDK1, recent reports (PDK1 [7]): low nM range
- percentage of kinase activity compared to control incubations, MKK1 (MKK1): 53 ± 1%
- percentage of kinase activity compared to control incubations, SAPK2α/p38 (SAPK2α/p38): 107 ± 5%
- percentage of kinase activity compared to control incubations, AMPK (AMPK): 1 ± 1%
- inhibition of Chk1, recent reports (CHK1 [8]): low nM range
- percentage of kinase activity compared to control incubations, CK2 (CK2): 102 ± 11%
- percentage of kinase activity compared to control incubations, PKCα (PKCα): 1 ± 0%
- percentage of kinase activity compared to control incubations, PKA (PKA): 27 ± 2%
- percentage of kinase activity compared to control incubations, SAPK2β/p38β2 (SAPK2β/p38β2): 106 ± 4%
- percentage of kinase activity compared to control incubations, MAPKAP-K1a (MAPKAP-K1a): 1 ± 1%
- percentage of kinase activity compared to control incubations, NEK6 (NEK6): 80 ± 7%
- percentage of kinase activity compared to control incubations, Lck (Lck): 3 ± 1%

Molecule: GST-PDK1[T148A] (from UniProt O15530 1-556) (enzyme)
- Kd [2]: 64 nM
- Kd [3]: 60 nM
- fold higher affinity than wild type PDK1 [9]: 10 fold
- RUmax [10]: 435 RU

B1: S6K-HM, non-phosphorylated peptide comprising the hydrophobic motif of S6K1 (peptide)
peptide: SESANQVFLGFTYVAPSV
modifications: also: biotinylated in BiaCore assay
notes: also called 56K-HM
- binding result [11]: no binding (tested: 2-2150 nM)
- activation of PDK1 activity towards T308tide [12]: < 2 fold
